This assay deals with T1, FLT3 D835H (Homo sapiens, UniProt P36888, D835H).
T1 construct: host or cells: E. coli BL21-derived host (T7 phage) or HEK-293
T1 sequence (P36888 27-993 D835H): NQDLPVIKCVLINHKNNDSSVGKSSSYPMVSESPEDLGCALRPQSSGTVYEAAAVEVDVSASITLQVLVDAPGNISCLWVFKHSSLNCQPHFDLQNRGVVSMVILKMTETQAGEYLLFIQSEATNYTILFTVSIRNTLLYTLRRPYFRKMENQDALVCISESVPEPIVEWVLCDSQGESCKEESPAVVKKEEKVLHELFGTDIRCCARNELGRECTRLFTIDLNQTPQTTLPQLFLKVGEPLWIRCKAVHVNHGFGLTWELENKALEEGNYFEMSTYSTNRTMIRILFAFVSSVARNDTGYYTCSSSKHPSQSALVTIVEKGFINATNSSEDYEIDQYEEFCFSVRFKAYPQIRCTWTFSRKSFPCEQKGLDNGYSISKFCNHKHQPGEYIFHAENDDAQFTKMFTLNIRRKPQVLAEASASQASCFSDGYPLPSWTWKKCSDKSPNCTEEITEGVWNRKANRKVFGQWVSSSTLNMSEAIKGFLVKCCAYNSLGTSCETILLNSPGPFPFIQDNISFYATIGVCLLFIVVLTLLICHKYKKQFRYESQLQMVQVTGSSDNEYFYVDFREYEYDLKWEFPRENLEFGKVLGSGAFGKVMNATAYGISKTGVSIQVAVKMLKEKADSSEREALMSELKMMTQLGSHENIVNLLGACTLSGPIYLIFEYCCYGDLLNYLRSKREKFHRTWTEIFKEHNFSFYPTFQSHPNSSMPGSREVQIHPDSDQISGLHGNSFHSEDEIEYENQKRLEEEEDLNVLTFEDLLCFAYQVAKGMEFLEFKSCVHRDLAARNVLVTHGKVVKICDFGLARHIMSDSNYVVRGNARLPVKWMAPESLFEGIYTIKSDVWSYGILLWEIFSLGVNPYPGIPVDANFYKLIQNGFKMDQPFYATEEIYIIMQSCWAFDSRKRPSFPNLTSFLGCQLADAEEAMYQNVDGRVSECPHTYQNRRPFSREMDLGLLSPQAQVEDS
The experiment in a line: DiscoverX KINOMEscan competition binding, FLT3 D835H. The source says: Kinase binding data were obtained for various exemplary compounds prepared according to Examples 1-24 using the DiscoverX KINOMVIEscan® active site-directed competition binding site-directed assay protocol described below. […] As a result, the data report thermodynamic interaction affinities (Kd values), rather than IC50 values that are dependent on ATP concentrations. The assay uses a DNA-tagged version of the protein kinase, and an immobilized ligand bound to a solid support. Compounds that directly or indirectly prevent kinase binding to the immobilized ligand reduce the amount of kinase captured on the solid support, which is detected using an ultra-sensitive qPCR method. Affinity constants reported from the assay have been reported to be independent of the immobilized ligand used that is coupled to the solid support (See supplemental information in Fabian, M. A. et. al., (2005) Nat. Biotechnol. 23, 329-336; Wodicka, L. M. et. al., (2010) Chem. Biol. 17, 1241-1249.)
Kinase-tagged T7 phage strains were prepared in an E. coli host derived from the BL21 strain. E. coli were grown to log-phase and infected with T7 phage and incubated with shaking at 32° C. until lysis. The lysates were centrifuged and filtered to remove cell debris. The remaining kinases were produced in HEK-293 cells and subsequently tagged with DNA for qPCR detection. Streptavidin-coated magnetic beads were treated with biotinylated small molecule ligands for 30 minutes at room temperature to generate affinity resins for kinase assays. The liganded beads were blocked with excess biotin and washed with blocking buffer (SeaBlock (Pierce), 1% BSA, 0.05% Tween 20, 1 mM DTT) to remove unbound ligand and to reduce non-specific binding. Binding reactions were assembled by combining kinases, liganded affinity beads, and test compounds in 1× binding buffer (20% SeaBlock, 0.17×PBS, 0.05% Tween 20, 6 mM DTT). Test compounds were prepared as 111× stocks in 100% DMSO. Kds were determined using an 11-point 3-fold compound dilution series with three DMSO control points. All compounds for Kd measurements are distributed by acoustic transfer (non-contact dispensing) in 100% DMSO. The compounds were then diluted directly into the assays such that the final concentration of DMSO was 0.9%. All reactions were performed in polypropylene 384-well plates. Each was a final volume of 0.02 mL. The assay plates were incubated at room temperature with shaking for 1 hour and the affinity beads were washed with wash buffer (1×PBS, 0.05% Tween 20). The beads were then re-suspended in elution buffer (1×PBS, 0.05% Tween 20, 0.5 μM nonbiotinylated affinity ligand) and incubated at room temperature with shaking for 30 minutes. The kinase concentration in the eluates was measured by qPCR.
Binding constants (Kds) were calculated with a standard dose-response curve using the Hill equation. The Hill Slope was set to −1. Curves were fitted using a non-linear least square fit with the Levenberg-Marquardt algorithm.

SMILES strings stand for the structures.

The term Kd denotes the free concentration of one partner at which half of the binding sites on the other are occupied at equilibrium, for simple one-to-one binding. The low end stands for a tighter complex, the high end for a looser complex. For `CC1(c2cn3c(-c4cccc(N[C@H]5CNC[C@@H]5F)n4)cnc3cn2)CC1` [Compound 1, N-((3S,4S)-4-fluoropyrrolidin-3-yl)-6-(6-(1-methylcyclopropyl)imidazo[1,2-a]pyrazin-3-yl)pyridin-2-amine], the Kd amounted to 66 pM. Regarding `CC1(c2cn3c(-c4cccc(N[C@@H]5CCNC5)n4)cnc3cn2)CC1` [Compound 3, (R)-6-(6-(1-methylcyclopropyl)imidazo[1,2-a]pyrazin-3-yl)-N-(pyrrolidin-3-yl)pyridin-2-amine], the Kd came out at 59 pM. Molecule `CC1(c2cn3c(-c4cccc(N[C@H]5CNCC56CC6)n4)cnc3cn2)CC1` [Compound 5, (R)-N-(6-(6-(1-methylcyclopropyl)imidazo[1,2-a]pyrazin-3-yl)pyridin-2-yl)-5-azaspiro[2.4]heptan-7-amine] yielded a Kd of 63 pM. The molecule `FC(F)(F)C1(c2cn3c(-c4cccc(N[C@@H]5CCNC5)n4)cnc3cn2)CC1` [Compound 10, (R)-N-(pyrrolidin-3-yl)-6-(6-(1-(trifluoromethyl)cyclopropyl)imidazo[1,2-a]pyrazin-3-yl)pyridin-2-amine] returned a Kd of 82 pM. As to `FC(F)c1cn2c(-c3cccc(N[C@H]4CNC[C@@H]4F)n3)cnc2cn1` [Compound 16, 6-(6-(difluoromethyl)imidazo[1,2-a]pyrazin-3-yl)-N-((3S,4S)-4-fluoropyrrolidin-3-yl)pyridin-2-amine], the Kd was 200 pM. `FC(F)c1cn2c(-c3cccc(N[C@H]4CNCC[C@@H]4F)n3)cnc2cn1` [Compound 25, 6-(6-(difluoromethyl)imidazo[1,2-a]pyrazin-3-yl)-N-((3S,4S)-4-fluoropiperidin-3-yl)pyridin-2-amine] gave a Kd of 180 pM. `CC(C)(O)c1cn2c(-c3cccc(N[C@@H]4CCCNC4)n3)cnc2cn1` [Compound 30, (R)-2-(3-(6-(piperidin-3-ylamino)pyridin-2-yl)imidazo[1,2-a]pyrazin-6-yl)propan-2-ol] yielded a Kd of 1200 pM.

Molecule `CC(C)(O)c1cn2c(-c3cccc(N[C@H]4CNCC[C@@H]4F)n3)cnc2cn1` [Compound 31, 2-(3-(6-(((3S,4S)-4-fluoropiperidin-3-yl)amino)pyridin-2-yl)imidazo[1,2-a]pyrazin-6-yl)propan-2-ol] returned a Kd of 430 pM. Molecule `FC(F)(F)COc1cn2c(-c3cccc(N[C@@H]4CCNC4)n3)cnc2cn1` [Compound 38, (R)-N-(pyrrolidin-3-yl)-6-(6-(2,2,2-trifluoroethoxy)imidazo[1,2-a]pyrazin-3-yl)pyridin-2-amine] came in with a dissociation constant (Kd) of 240 pM. The molecule `F[C@H]1CNC[C@@H]1Nc1cccc(-c2cnc3cnc(C4CC4)cn23)n1` [Compound 50, 6-(6-cyclopropylimidazo[1,2-a]pyrazin-3-yl)-N-((3S,4S)-4-fluoropyrrolidin-3-yl)pyridin-2-amine] had a Kd of 32 pM. In the case of `Cn1cc(-c2cn3c(-c4cccc(N[C@H]5CNC[C@@H]5F)n4)cnc3cn2)cn1` [Compound 52, N-((3S,4S)-4-fluoropyrrolidin-3-yl)-6-(6-(1-methyl-1H-pyrazol-4-yl)imidazo[1,2-a]pyrazin-3-yl)pyridin-2-amine], the Kd turned out to be 78 pM.
